From PubChem BioAssay (NCI)
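Test compounds were applied to cells in 96-well plates for 48 hours at 5 doses. TGI: concentration producing complete growth inhibition.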

Experiments:
Experiment in all cases: DTP human tumour cell line panel, 48 h
NCI-H23 lung = test system: NCI-H23 lung
SK-MEL-28 melanoma = test system: SK-MEL-28 melanoma
SNB-19 CNS = test system: SNB-19 CNS
NCI-H226 lung = test system: NCI-H226 lung
KM12 colon = test system: KM12 colon
SF-295 CNS = test system: SF-295 CNS
CCRF-CEM leukemia = test system: CCRF-CEM leukemia
HOP-92 NSCLC = test system: HOP-92 NSCLC
LXFL 529 NSCLC = test system: LXFL 529 NSCLC
HOP-62 NSCLC = test system: HOP-62 NSCLC
IGROV1 ovarian = test system: IGROV1 ovarian
ACHN renal = test system: ACHN renal
SK-MEL-5 melanoma = test system: SK-MEL-5 melanoma
OVCAR-3 ovarian = test system: OVCAR-3 ovarian
OVCAR-8 ovarian = test system: OVCAR-8 ovarian
DMS 114 small cell lung = test system: DMS 114 small cell lung
NCI-H460 lung = test system: NCI-H460 lung
HL-60(TB) leukemia = test system: HL-60(TB) leukemia
SK-OV-3 ovarian = test system: SK-OV-3 ovarian
OVCAR-5 ovarian = test system: OVCAR-5 ovarian
COLO 205 colon = test system: COLO 205 colon
HT29 colon = test system: HT29 colon
MOLT-4 leukemia = test system: MOLT-4 leukemia
SNB-75 CNS = test system: SNB-75 CNS
A549 NSCLC = test system: A549 NSCLC
LOX IMVI melanoma = test system: LOX IMVI melanoma
K-562 leukemia = test system: K-562 leukemia
786-0 renal = test system: 786-0 renal
TK-10 renal = test system: TK-10 renal
M14 melanoma = test system: M14 melanoma
SW-620 colon = test system: SW-620 colon
CAKI-1 renal = test system: CAKI-1 renal
HCC-2998 colon = test system: HCC-2998 colon
MALME-3M melanoma = test system: MALME-3M melanoma
A498 renal = test system: A498 renal
SN12C renal = test system: SN12C renal
RPMI-8226 leukemia = test system: RPMI-8226 leukemia
SF-539 CNS = test system: SF-539 CNS
OVCAR-4 ovarian = test system: OVCAR-4 ovarian
U251 CNS = test system: U251 CNS
RXF 393 renal = test system: RXF 393 renal
M19-MEL melanoma = test system: M19-MEL melanoma
RXF-631 renal = test system: RXF-631 renal
UO-31 renal = test system: UO-31 renal
SNB-78 CNS = test system: SNB-78 CNS
KM20L2 colon = test system: KM20L2 colon
NCI-H522 lung = test system: NCI-H522 lung
SK-MEL-2 melanoma = test system: SK-MEL-2 melanoma
SF-268 CNS = test system: SF-268 CNS
DLD-1 colon = test system: DLD-1 colon
EKVX NSCLC = test system: EKVX NSCLC
UACC-257 melanoma = test system: UACC-257 melanoma
HOP-18 NSCLC = test system: HOP-18 NSCLC
HCT-116 colon = test system: HCT-116 colon
HCT-15 colon = test system: HCT-15 colon
UACC-62 melanoma = test system: UACC-62 melanoma
SR leukemia = test system: SR leukemia

SMILES: CCc1ccccc1NC(=O)C1=C(C)NC(C)=C(C(=O)Nc2ccccc2CC)C1c1cccc([N+](=O)[O-])c1
- TGI (NCI-H23 lung): > 100 µM
- TGI (SK-MEL-28 melanoma): > 100 µM
- TGI (SNB-19 CNS): > 100 µM
- TGI (NCI-H226 lung): > 100 µM
- TGI (KM12 colon): > 100 µM
- TGI (SF-295 CNS): > 100 µM
- TGI (CCRF-CEM leukemia): > 100 µM
- TGI (HOP-92 NSCLC): 62.8 µM
- TGI (LXFL 529 NSCLC): > 100 µM
- TGI (HOP-62 NSCLC): > 100 µM
- TGI (IGROV1 ovarian): > 100 µM
- TGI (ACHN renal): > 100 µM
- TGI (SK-MEL-5 melanoma): > 100 µM
- TGI (OVCAR-3 ovarian): > 100 µM
- TGI (OVCAR-8 ovarian): > 100 µM
- TGI (DMS 114 small cell lung): > 100 µM
- TGI (NCI-H460 lung): > 100 µM
- TGI (HL-60(TB) leukemia): 88.7 µM
- TGI (SK-OV-3 ovarian): > 100 µM
- TGI (OVCAR-5 ovarian): > 100 µM
- TGI (COLO 205 colon): > 100 µM
- TGI (HT29 colon): > 100 µM
- TGI (MOLT-4 leukemia): > 100 µM
- TGI (SNB-75 CNS): > 100 µM
- TGI (A549 NSCLC): > 100 µM
- TGI (LOX IMVI melanoma): > 100 µM
- TGI (K-562 leukemia): > 100 µM
- TGI (786-0 renal): > 100 µM
- TGI (TK-10 renal): > 100 µM
- TGI (M14 melanoma): > 100 µM
- TGI (SW-620 colon): > 100 µM
- TGI (CAKI-1 renal): > 100 µM
- TGI (HCC-2998 colon): 62 µM
- TGI (MALME-3M melanoma): > 100 µM
- TGI (A498 renal): 93.8 µM
- TGI (SN12C renal): > 100 µM
- TGI (RPMI-8226 leukemia): > 100 µM
- TGI (SF-539 CNS): > 100 µM
- TGI (OVCAR-4 ovarian): > 100 µM
- TGI (U251 CNS): > 100 µM
- TGI (RXF 393 renal): > 100 µM
- TGI (M19-MEL melanoma): > 100 µM
- TGI (RXF-631 renal): > 100 µM
- TGI (UO-31 renal): > 100 µM
- TGI (SNB-78 CNS): > 100 µM
- TGI (KM20L2 colon): > 100 µM
- TGI (NCI-H522 lung): 97.8 µM
- TGI (SK-MEL-2 melanoma): > 100 µM
- TGI (SF-268 CNS): > 100 µM
- TGI (DLD-1 colon): > 100 µM
- TGI (EKVX NSCLC): > 100 µM
- TGI (UACC-257 melanoma): > 100 µM

SMILES: Cc1ccc(N=Nc2c(C)nn(-c3ccccc3)c2-c2ccccc2)c(Br)c1
- TGI (SK-MEL-28 melanoma): > 100 µM
- TGI (SNB-19 CNS): > 100 µM
- TGI (NCI-H226 lung): > 100 µM
- TGI (KM12 colon): > 100 µM
- TGI (SF-295 CNS): > 100 µM
- TGI (CCRF-CEM leukemia): > 100 µM
- TGI (HOP-92 NSCLC): > 100 µM
- TGI (LXFL 529 NSCLC): > 100 µM
- TGI (HOP-62 NSCLC): > 100 µM
- TGI (IGROV1 ovarian): > 100 µM
- TGI (ACHN renal): > 100 µM
- TGI (OVCAR-3 ovarian): > 100 µM
- TGI (OVCAR-8 ovarian): > 100 µM
- TGI (NCI-H460 lung): > 100 µM
- TGI (HL-60(TB) leukemia): > 100 µM
- TGI (SK-OV-3 ovarian): > 100 µM
- TGI (HOP-18 NSCLC): > 100 µM
- TGI (HCT-116 colon): > 100 µM
- TGI (HT29 colon): > 100 µM
- TGI (MOLT-4 leukemia): > 100 µM
- TGI (HCT-15 colon): > 100 µM
- TGI (SNB-75 CNS): > 100 µM
- TGI (A549 NSCLC): > 100 µM
- TGI (LOX IMVI melanoma): > 100 µM
- TGI (K-562 leukemia): > 100 µM
- TGI (786-0 renal): > 100 µM
- TGI (TK-10 renal): > 100 µM
- TGI (M14 melanoma): > 100 µM
- TGI (UACC-62 melanoma): > 100 µM
- TGI (SW-620 colon): > 100 µM
- TGI (CAKI-1 renal): > 100 µM
- TGI (HCC-2998 colon): > 100 µM
- TGI (SR leukemia): > 100 µM
- TGI (MALME-3M melanoma): > 100 µM
- TGI (A498 renal): > 100 µM
- TGI (SN12C renal): > 100 µM
- TGI (SF-539 CNS): > 100 µM
- TGI (OVCAR-4 ovarian): > 100 µM
- TGI (M19-MEL melanoma): > 100 µM
- TGI (RXF-631 renal): > 100 µM
- TGI (UO-31 renal): > 100 µM
- TGI (KM20L2 colon): > 100 µM
- TGI (NCI-H522 lung): > 100 µM
- TGI (SK-MEL-2 melanoma): > 100 µM
- TGI (SF-268 CNS): > 100 µM
- TGI (DLD-1 colon): > 100 µM
- TGI (EKVX NSCLC): > 100 µM
- TGI (UACC-257 melanoma): > 100 µM
